Results on 2 compounds are retold here after patent US20080134931A1, “Plasterboards Provided With Antimicrobial Effect” (priority 2005, published 2008).

Read-outs that look alike come from different tables or passages of the source.

The test system of one experiment is Aspergillus flavus. Briefly: Minimum inhibitory concentration and synergism (Kull synergy index) of OPP/TBZ. The format is cell-based. The note with it: read-out: Amount of pure active substances which suppress growth (QA, QB; minimum inhibitory concentration). The text has this:
For improving the overall performance of an antimicrobial treatment, the use of active substance mixtures is customary for compensating, for example, for gaps in the activity of one component or for optimizing the costs of preservation.
The synergism found for the mixture according to the invention can be determined via the following mathematical formula (cf. F. C. Kull, P. C. Elisman, H. D. Sylwestrowicz and P. K. Mayer, Appl. Microbiol. 9, 538 (1961):
Qa=amount of component A in the active substance mixture which achieves the desired effect, i.e. no microbial growth,
QA=amount of component A which, when used alone, suppresses the growth of the micro-organisms,
Qb=amount of component B in the active substance mixture which suppresses the growth of the micro-organisms,
QB=amount of component B which, when used alone, suppresses the growth of the micro-organisms.
Synergism of o-phenylphenol (OPP)/thiabendazole (TBZ)
Using the test micro-organism, Aspergillus flavus, the minimum inhibitory concentration of the active substance combinations listed in Table 2 were investigated.

The subject of experiment [1] is mixture of moulds: Penicillium glaucum, Chaetomium globosum, Aspergillus niger, Aureobasidium pullulans. Briefly: Microbiological resistance of plasterboard treated with OPP in the gypsum core after inoculation with a fungal mixture, humid environment. The text has this: For checking the effectiveness of a plasterboard treated with OPP in the gypsum core, the resistance was investigated in the laboratory after inoculation with a fungal mixture. For this purpose, sandwich-type plasterboard samples having the dimensions 14×5 cm are transferred to a 1 litre powder bottle and suspended by the bottle cap. At the start of the experiment, the test specimens thus prepared are immersed once in a mixture of the following moulds to simulate a strong fungal attack:
The mould species are material pests well known to the person skilled in the art and are therefore suitable for a qualifying conclusion about the degree of antimicrobial protection of a product treated with an OPP or the sodium or potassium salt thereof and optionally further active components. The sample boards are stored at room temperature over a period of up to 8 weeks, a water vapour-saturated atmosphere being continuously ensured by maintaining the initial amount of water at the bottom of the vessel (direct contact between plasterboard and water is not permitted). The assessment of the test specimens is effected at certain times and is carried out according to the following rating scheme:
0=no growth on the surface
1=slight growth (<10% of the surface infested)
2=moderate growth (<50% of the surface infested)
3=strong growth on the surface
Microbiological resistance of a plasterboard contaminated once in a humid environment

`c1ccc2[nH]c(-c3cscn3)nc2c1` [TBZ, thiabendazole, reference compound]: the MIC with Aspergillus flavus (substance used alone) amounted to 500 µg/mL.

As for `Oc1ccccc1-c1ccccc1` [OPP, o-phenylphenol], the “Rating (mould growth on plasterboard surface)” value in experiment [1] (300 ppm OPP in the gypsum core, 1 week, water vapour-saturated atmosphere, room temperature) is 0/0; in experiment [1] (300 ppm OPP in the gypsum core, 3 weeks), 0/0; in experiment [1] (300 ppm OPP in the gypsum core, 4 weeks) it was 0/0; in experiment [1] (300 ppm OPP in the gypsum core, 8 weeks), 0/0; in experiment [1] (500 ppm OPP in the gypsum core, 1 week) it was 0/0; in experiment [1] (500 ppm OPP in the gypsum core, 3 weeks), 0/0. Also, the “Rating (mould growth on plasterboard surface)” value in experiment [1] (500 ppm OPP in the gypsum core, 4 weeks) is reported as 0/0; in experiment [1] (500 ppm OPP in the gypsum core, 8 weeks) it was 0/0; in experiment [1] (750 ppm OPP in the gypsum core, 1 week), 0/0; in experiment [1] (750 ppm OPP in the gypsum core, 3 weeks), 0/0; in experiment [1] (750 ppm OPP in the gypsum core, 4 weeks), 0/0; in experiment [1] (750 ppm OPP in the gypsum core, 8 weeks), 0/0. For the same compound, the “Concentration of use from which good effectiveness was found” value in experiment [1] (based on the weight of the gypsum core) was no less than 300 ppm. In addition, in the experiment with Aspergillus flavus, the MIC was 100 µg/mL.
